Several values for one entry are separate records, joined by “and”; a condition that tells them apart may be missing. Identical values can stand only once. Entries after “also recorded” stand apart in the source; their conditions may differ. Counter-ions that a name gives are not always drawn. Like-named read-outs stand apart in the source and are kept apart here.
Legend:
[1] = biological target: T1, NPFF2 (Homo sapiens, UniProt Q9Y5X5); assay: Receptor Selection and Amplification Technology (R-SAT) functional assay, NPFF2; format: cell-based; details: for NPFF2b % Efficacy Mean: Hydrochloride
T1 construct: expressed in transfected cells; host or cells: NIH3T3
T1 sequence (Q9Y5X5 103-522): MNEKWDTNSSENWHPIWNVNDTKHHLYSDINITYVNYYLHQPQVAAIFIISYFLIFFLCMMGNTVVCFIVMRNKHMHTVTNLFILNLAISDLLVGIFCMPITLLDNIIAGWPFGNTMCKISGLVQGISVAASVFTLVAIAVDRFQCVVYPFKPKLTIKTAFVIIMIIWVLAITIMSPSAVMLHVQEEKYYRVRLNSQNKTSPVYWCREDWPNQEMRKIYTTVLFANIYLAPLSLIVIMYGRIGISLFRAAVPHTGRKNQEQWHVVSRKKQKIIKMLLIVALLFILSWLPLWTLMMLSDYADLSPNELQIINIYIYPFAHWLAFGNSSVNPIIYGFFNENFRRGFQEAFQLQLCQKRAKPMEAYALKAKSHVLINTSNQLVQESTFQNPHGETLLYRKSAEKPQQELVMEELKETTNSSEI
In short: (§1)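 NIH3T3 cells transiently transfected for 16-20 h with receptor and β-galactosidase plasmids, then grown with compound for five days at 5% CO2. Functional response read as β-galactosidase activity with ONPG substrate, colorimetric absorbance at 420 nm.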

[2] = test system: rats; assay: Observed behaviors / side effects after systemic administration; format: in vivo, rat
Experimental: These behaviors typically precede “barrel-rolling” seizures.
These effects persisted between 15 and 20 minutes. These effects were not observed in rats that received doses less than 10 mg/kg.
These effects persisted between 15 and 20 minutes and were shown by both sham-operated and SNL rats. These effects were not observed in rats that received doses less than 10 mg/kg. [drawing 22]
However, these effects were more robust and of longer duration (60-90 min).
These effects persisted between 60 and 90 minutes and were shown by both sham-operated and SNL rats. These effects were not observed in rats that received doses less than 10 mg/kg. [drawing 23]
A model of neuropathic pain was created in rats by tight ligation of the L5 and L6 spinal nerves. […] Rats were then treated with various doses of dPQR (3, 10 and 30 mg/kg, i.p.) and paw withdrawal thresholds were tested across a period of 3 hours.
A model of neuropathic pain was created in rats by tight ligation of the L5 and L6 spinal nerves. […] Rats were then treated with various doses of Compound 3099 (1, 3 and 10 mg/kg, i.p.) and paw withdrawal thresholds were tested across a period of 3 hours.
In an attempt to increase the efficacy of Compound 3099 in the SNL model, we administered a dose of 30 mg/kg (i.p.) to SNL rats. […] Further, these behaviors were also transient, such that, by the end of the testing period these effects appeared to have resolved.

[3] = test system: L5/L6 SNL-induced Tactile Allodynia; assay: L5/L6 SNL-induced Tactile Allodynia; format: in vivo, rat; details: for effect on L5/L6 SNL-induced tactile allodynia (paw withdrawal thresholds): various doses; for sensitivity to non-noxious mechanical stimulation in sham-operated rats: 10 mg/kg (1045, 2616), 30 mg/kg (dPQR)
Description: This model of neuropathic pain was developed by Kim and Chung (Kim S H, Chung J M., “An experimental model for peripheral neuropathy produced by segmental spinal nerve ligation in the rat,” Pain, 1992 September; 50(3):355-63). This model requires the ligation of the L5 and L6 spinal nerves between the spinal cord and the entry point into the sciatic nerve. Seven to fourteen days following SNL surgery rats will be reassessed for their response thresholds to mechanical stimuli. For the assessment of paw withdrawal thresholds rats were allowed to acclimate within plexiglass enclosures for approximately 20 min. A series of calibrated von Frey filaments (1.56-15.0 g, logarithmically spaced) were applied to the plantar aspect of the injured hind paw until a response was elicited. Paw withdrawal thresholds to probing were determined according to a previously described method (Chaplan S R, Bach F W, Pogrel J W, Chung J M, Yaksh T L., “Quantitative assessment of tactile allodynia in the rat paw,” J Neurosci Methods, 1994 July;53(1):55-63). Paw withdrawal thresholds were determined to the nearest 0.1 g before surgery, then before and at multiple time points following compound administration. A significant reduction in the paw withdrawal threshold was interpreted as the presence of tactile allodynia.
In order to study the endogenous activity of the NPFF system following injury to peripheral nerves, the activity of a FF1 receptor antagonist, dPQR, was assessed in a model of neuropathic pain. In this model, the L5 and L6 spinal nerves between the spinal cord and the entry point into the sciatic nerve were ligated (Kim & Chung, 1992). Seven to fourteen days following SNL surgery rats were reassessed for their response thresholds to mechanical stimuli. For the assessment of paw withdrawal thresholds rats were allowed to acclimate within plexiglass enclosures for approximately 20 min. A series of calibrated von Frey filaments (1.56-15.0 g, logarithmically spaced) were applied to the plantar aspect of the injured hind paw until a response was elicited. Paw withdrawal thresholds to probing were determined according to a previously described method (Chaplan et al., 1994). Paw withdrawal thresholds were determined to the nearest 0.1 g before surgery, then before and at multiple time points following compound administration. A significant reduction in the paw withdrawal threshold was interpreted as the presence of tactile allodynia.
A model of neuropathic pain was created in rats by tight ligation of the L5 and L6 spinal nerves. […] Rats were then treated with various doses of Compound 1045 (1, 3 and 10 mg/kg, i.p.) and paw withdrawal thresholds were tested across a period of 2 hours.

[4] = biological target: NPFF1 (Homo sapiens, UniProt Q9GZQ6); assay: Receptor Selection and Amplification Technology (R-SAT) functional assay, NPFF1; format: cell-based; design: expressed in transfected cells; host or cells: NIH3T3; details: for NPFF1 % Efficacy Mean: Hydrochloride
Sequence of NPFF1 (Q9GZQ6 whole entry, species assumed): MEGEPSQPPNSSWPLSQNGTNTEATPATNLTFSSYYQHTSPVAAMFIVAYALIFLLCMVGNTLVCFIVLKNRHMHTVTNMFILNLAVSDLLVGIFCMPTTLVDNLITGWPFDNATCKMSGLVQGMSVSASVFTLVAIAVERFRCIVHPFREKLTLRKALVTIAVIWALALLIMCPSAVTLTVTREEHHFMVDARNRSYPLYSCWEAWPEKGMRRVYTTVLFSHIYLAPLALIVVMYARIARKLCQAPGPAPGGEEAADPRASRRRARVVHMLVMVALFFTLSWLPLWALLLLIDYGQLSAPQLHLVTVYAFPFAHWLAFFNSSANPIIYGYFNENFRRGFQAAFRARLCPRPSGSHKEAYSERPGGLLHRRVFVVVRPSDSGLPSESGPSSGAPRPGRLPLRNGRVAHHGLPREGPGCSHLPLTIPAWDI
In short: as §1

[5] = R-SAT data, Table 2, multiple entries = different batches
[6] = R-SAT data, Table 2, multiple entries = different batches, read-out: NPFF2b % Efficacy Mean
[7] = R-SAT, Table 1, Efficacy is relative to endogenous ligand, read-out: NPFF2 % Efficacy
[8] = R-SAT data, Table 2, multiple entries = different batches, read-out: NPFF1 % Efficacy Mean
[9] = R-SAT, Table 1, Efficacy is relative to endogenous ligand, read-out: NPFF1 % Efficacy
[10] = NPFF2b pEC50 Mean, R-SAT data, Table 2, multiple entries = different batches

| Structure (SMILES) | NPFF2b % Efficacy Mean [1, 5] | Emax [1, 6] [%] | Emax [1, 7] [%] | effect on L5/L6 SNL-induced tactile allodynia (paw withdrawal thresholds) ([3]; SNL rats, i.p., Hydrochloride) | NPFF1 % Efficacy Mean [4, 5] | Emax [4, 8] [%] | Emax [4, 9] [%] | EC50 [1, 10] | side effects at doses less than 10 mg/kg ([2]; rat, in vivo) | side effects observed ([2]; rat, in vivo, ip, 10 mg/kg) | other results |
| --- | --- | --- | --- | --- | --- | --- | --- | --- | --- | --- | --- |
| Cl.N=C(N)N/N=C/c1ccc(Br)c(Br)c1 [Compound 3093, 1-(3,4-Dibromobenzylideneamino)guanidine Hydrochloride] | 89.9% | 85.3 | 89 | dose-dependently reverse tactile allodynia; also recorded: dose-related reversal of tactile allodynia | 11.7% | 10.2 | 11 | – | – | – | EC50 ([1]; R-SAT data, Table 2, multiple entries = different batches, read-out: NPFF2b pEC50 Mean (converted)): 631 nM and 1260 nM; EC50 ([1]; R-SAT, Table 1, NA = No activity detectable at the highest dose tested (20 μM), read-out: NPFF2 pEC50 (converted)): 1580 nM; behaviors observed (typically precede barrel-rolling seizures) ([2]; rat, in vivo, ip, 30 mg/kg): immobility and staring, ataxia, splayed hind limbs, body swaying, lying on one side with spastic limb abduction and body distortions; time of peak effect after administration ([3]; SNL rats, i.p.): 30 min; calculated A50, reversal of tactile allodynia ([3]; SNL rats, i.p., 95% CI): 6.2 mg |
| NC(N)=N/N=C/c1ccc(Cl)c(Cl)c1 [Compound 1045, 1-(3,4-Dichlorobenzylideneamino)guanidine Hydrochloride] | 55.2% | 63.8 | 64 | – | – | 6.3 | 17 | 794 nM and 501 nM | not observed | demonstrated writhing behavior and appeared lethargic | EC50 ([1]; NPFF2 pEC50, R-SAT, Table 1, NA = No activity detectable at the highest dose tested (20 μM)): 794 nM; duration of side effects ([2]; SNL rats, 30 mg/kg): 60 to 90 min; new side effects noted ([2]; rat, in vivo, 30 mg/kg): ptosis, shuffling/stomping and biting of forlimbs and hindlimbs; efficacy against SNL-induced tactile allodynia at 30 mg/kg ([3]; SNL rats, 30 mg/kg): initially efficacious at the 30 min time-point; paw withdrawal thresholds by 60 min and until the end of the testing session ([3]; SNL rats, 30 mg/kg, suggests potentiation of tactile allodynia): significantly reduced the paw withdrawal thresholds to levels below those obtained in SNL vehicle-treated rats; maximum efficacy, reversal of tactile allodynia ([3]; SNL rats, i.p.): 37.9%; sensitivity to non-noxious mechanical stimulation in sham-operated rats ([3]; i.p.): did not significantly alter sensitivity to non-noxious mechanical stimulation |
| NC(N)=NN=Cc1ccc(-c2ccccc2C(F)(F)F)o1 (racemic) [Compound 2616, 1-[(5-(2-(Trifluoromethyl)phenyl)-furan-2-yl)-methyleneamino]guanidine Hydrochloride] | 80.4% and 72.9% | 63 | – | either demonstrate very little efficacy or potentiate tactile allodynia; also recorded: dose-related potentiation of tactile allodynia | 66.3% and 52.1% | 55 | – | 100 nM | not observed | demonstrated writhing behavior and appeared lethargic | duration of side effects ([2]; rat, in vivo, ip, 10 mg/kg): 60 to 90 min; sensitivity to non-noxious mechanical stimulation in sham-operated rats ([3]; i.p., Hydrochloride): produced tactile allodynia in sham-operated rats; also recorded: significant reduction in the paw withdrawal thresholds of sham-operated rats; EC50 [4]: 39.8 nM; EC50 ([4]; R-SAT data, Table 2, multiple entries = different batches, read-out: NPFF1 pEC50 Mean (converted)): 1260 nM and 316 nM |
